According to patent US20210052600A1, “THERAPEUTIC AGENTS FOR STRESS URINARY INCONTINENCE AND INCOTINENCE OF FECES” (Takeda Pharmaceutical Company Limited, priority 2017, published 2021):

Assays:
[1] = system: urethral resistance increasing effect of Compound A′; experiment: Influence of antagonists (SB 242084, methiothepin) on urethral resistance increasing effect of Compound A′ in rats; assay type: in vivo, rat; settings: mean ± SEM; for LPP Post: 30 minutes after Compound A′; for LPP Increase: Post minus Pre; for LPP Pre: before administration
Protocol: Ninety female rats of SD strain were used. […] Isoflurane inhalation was added during the surgery, if necessary. In the experiment with intrathecal administration, the dura mater was exposed by laminectomy and then partially opened by incision, through which a catheter (PE-10) filled with saline was then implanted at the level of the L6-S1 site, followed by the closing of the incision. After opening of the abdomen, a catheter (PE-90) was inserted into the bladder. In order to secure reduced urethral resistance, unilateral nerve to iliococcygeus and pubococcygeus muscles was transected. For intraduodenal administration, another catheter (PE-50) was inserted into the duodenum in advance. The abdominal muscle and skin were each closed with sutures. Two (right and left) sites of abdominal skin near the diaphragm were cut to expose abdominal muscle. The bladder was emptied through the catheter, followed by the injection of 0.2 to 0.3 mL of Evans blue solution. Change in intravesical pressure was recorded using the bladder catheter via a pressure transducer, an electric signal amplifier, and an analog-to-digital converter. While change in intravesical pressure was recorded, the presence or absence of fluid leakage from the urethral orifice was observed under the electrical stimulation of the exposed abdominal muscle using an electrical stimulator and an isolator. […] The peak of the intravesical pressure during the stimulation of the abdominal muscle was measured, and the lowest pressure at which the fluid leakage was observed among the trials was defined as LPP for the electrical abdominal muscle stimulation method. In order to examine whether the urethral resistance increasing effect of Compound A′ is based on its agonistic potency on 5-HT2C receptors, SB 242084, methiothepin, or a vehicle was intravenously administered, and Compound A′ or a vehicle was intraduodenally administered 5 minutes later. SB 242084 was dissolved in a mixed solution of N,N-dimethylacetamide and polyethylene glycol 400 (1:1) and administered at 0.03 mg/0.5 mL/kg, 0.1 mg/0.5 mL/kg and 0.3 mg/0.5 mL/kg. Methiothepin was dissolved in saline and administered at 0.03 mg/0.5 mL/kg. 0.1 mg/0.5 mL/kg and 0.3 mg/0.5 mL/kg. Compound A′ was suspended in 0.5% MC and administered at 3 mg/mL/kg. LPP was measured again 30 minutes after Compound A′ administration. In order to examine where Compound A′ works in the body to increase urethral resistance, the blocking of the effect of Compound A′ was confirmed by blocking the functions of Compound A′ by giving methiothepin at a particular site in the body. Particularly, in the experiment with intrathecal administration, methiothepin or a vehicle was intrathecally administered, and Compound A′ or a vehicle was intraduodenally administered 5 minutes later. Methiothepin was dissolved in saline and 20 μL of the obtained solution was administered. Compound A′ was suspended in 0.5% MC and administered at 3 mg/mL/kg. LPP was measured again 30 minutes after Compound A′ administration.
Regarding change in LPP before and after drug administration, the differences between the mean values of the Compound A′-treated and vehicle-treated groups were analyzed by the Student's t test or the Welch's test. In order to analyze the influence of the antagonists on the effect of Compound A′, the differences between the mean values of the SB 242084- or methiothepin- and Compound A′-administered group and the vehicle- and Compound A′-administered group were analyzed by the one-tailed Williams' test.

human 5-HT2C receptors = target: T1, human 5-HT2C receptors (Homo sapiens, UniProt P28335); experiment: In vitro test of agonistic potency on human 5-HT2C receptor (change in intracellular Ca2+); assay type: cell-based; settings: CHO-K1 cells expressing recombinant human 5-HT2C receptors; intracellular Ca2+ (Fluo-4)
T1 construct: expressed in transfected cells; host or cells: CHO-K1 cells
T1 sequence (P28335 33-458): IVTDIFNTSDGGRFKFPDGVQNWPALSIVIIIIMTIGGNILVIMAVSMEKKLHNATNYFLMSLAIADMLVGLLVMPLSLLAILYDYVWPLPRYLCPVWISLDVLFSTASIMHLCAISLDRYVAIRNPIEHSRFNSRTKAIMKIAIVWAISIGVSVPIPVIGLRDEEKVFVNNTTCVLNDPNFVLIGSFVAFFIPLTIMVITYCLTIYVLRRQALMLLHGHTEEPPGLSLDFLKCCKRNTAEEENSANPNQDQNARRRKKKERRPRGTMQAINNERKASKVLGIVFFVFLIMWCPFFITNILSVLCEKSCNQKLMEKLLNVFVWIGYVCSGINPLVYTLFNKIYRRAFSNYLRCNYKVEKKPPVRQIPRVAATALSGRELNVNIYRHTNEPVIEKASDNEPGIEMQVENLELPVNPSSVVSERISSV

[2] = Plasma concentration of Compound A in healthy female volunteers after a single oral dose of Compound A′; settings: no unit in table (ng/mL)
Protocol: In each period, the test subjects received any of Treatments A to D once according to Table 10, and change in the plasma concentration of the administered compound was measured over 24 hours after each Treatment.
Specifically, 100 mL of the injectable water containing 20 mg or 90 mg of Compound A′ based on its free form was supplemented with a sweetener, and this solution was orally administered as Compound A′. As a placebo for Compound A′, 100 mL of the injectable water was supplemented with a sweetener, and this solution was orally administered.

urethral resistance = experiment: Rat urethral resistance (LPP) measured by high speed infusion of saline into the bladder; assay type: in vivo; settings: for LPP Post: 30 minutes after administration; for LPP Post / LPP Increase / LPP Pre: mean ± SEM; for LPP Increase: Post minus Pre; for LPP Pre: before administration
Source text: The rats were anesthetized with isoflurane. Their spinal cord was transected at the T8-T9 (the eighth thoracic cord—the ninth thoracic cord) level. After opening of the bladder dome, two polyethylene tubes (PE-100) were inserted into the bladder. The incised portion of the bladder was closed with sutures, and the other incisions were also closed. The rats were placed in Bollman cages. The catheter for intravesical pressure measurement was connected to a pressure transducer, while the catheter for saline filling was connected to a syringe filled with Evans Blue-dyed saline. Change in intravesical pressure was recorded using the pressure transducer via an electric signal amplifier and an analog-to-digital converter. After recovery of the animals from anesthesia, the intravesical pressure measurement was started, and saline was infused at a speed of 0.1 mL/sec into the bladder using an infusion pump. The infusion was stopped when the leakage of the saline from the urethral orifice was observed. Immediately thereafter, the bladder was emptied by releasing the pressure. In this operation, the peak of recorded intravesical pressure during the saline infusion was used as LPP in this Example. This measurement was repeated, and the average LPP from the last three measurements was used as the LPP value of the trial. The mean from 2 such trials was used as a Pre value. 0.5% MC was used as the vehicle. […] The difference in LPP from the Pre value (increased amount of LPP) was calculated. Regarding change in LPP before and after drug administration, the differences between the mean values of the drug-treated and vehicle-treated groups were analyzed by the one-tailed Williams' test.

[3] = SB 242084 0 mg/kg i.v. (vehicle) + Compound A′ 3 mg/kg i.d.
[4] = methiothepin 0 μg intrathecal (vehicle) + Compound A′ 3 mg/kg i.d.
[5] = methiothepin 0 mg/kg i.v. (vehicle) + Compound A′ 3 mg/kg i.d.
[6] = 20 mg single oral dose, Predose
[7] = 90 mg single oral dose, Predose

CC(C)N(C)c1cnc2c(n1)OCCNC2.Cl [Compound A′, N-methyl-N-(1-methylethyl)-6,7,8,9-tetrahydropyrazino[2,3-f][1,4]oxazeine-3-amine]
LPP Post [1, 3]: 72.4 ± 9.5 cmH2O | LPP Increase [1, 3]: 26.4 ± 5.9 cmH2O | LPP Pre [1, 3]: 46.0 ± 5.1 cmH2O | LPP Post [1, 4]: 72.1 ± 5.7 cmH2O | LPP Increase [1, 4]: 31.8 ± 6.2 cmH2O | LPP Pre [1, 4]: 40.3 ± 5.6 cmH2O | LPP Post [1, 5]: 61.0 ± 8.3 cmH2O | LPP Increase [1, 5]: 15.1 ± 4.0 cmH2O | LPP Pre [1, 5]: 45.9 ± 4.4 cmH2O | EC50 (human 5-HT2C receptors): 2.6 nM | plasma concentration of compound A, Mean ([2]; 20 mg single oral dose, 0.5 hr): 29.21 | plasma concentration of compound A, Median ([2]; 20 mg single oral dose, 0.5 hr): 28.40 | plasma concentration of compound A, Mean ([2]; 20 mg single oral dose, 1 hr): 25.19 | plasma concentration of compound A, Median ([2]; 20 mg single oral dose, 1 hr): 24.10 | plasma concentration of compound A, Mean ([2]; 20 mg single oral dose, 2 hr): 20.46 | plasma concentration of compound A, Median ([2]; 20 mg single oral dose, 2 hr): 19.20 | plasma concentration of compound A, Mean ([2]; 20 mg single oral dose, 3 hr): 14.38 | plasma concentration of compound A, Median ([2]; 20 mg single oral dose, 3 hr): 13.10 | plasma concentration of compound A, Mean ([2]; 20 mg single oral dose, 6 hr): 3.476 | plasma concentration of compound A, Median ([2]; 20 mg single oral dose, 6 hr): 3.760 | plasma concentration of compound A, Mean ([2]; 20 mg single oral dose, 8 hr): 1.416 | plasma concentration of compound A, Median ([2]; 20 mg single oral dose, 8 hr): 1.590 | plasma concentration of compound A, Mean ([2]; 20 mg single oral dose, 12 hr): 0.1327 | plasma concentration of compound A, Median ([2]; 20 mg single oral dose, 12 hr): 0.000 | plasma concentration of compound A, Mean [2, 6]: 0.000 | plasma concentration of compound A, Median [2, 6]: 0.000 | plasma concentration of compound A, Mean ([2]; 90 mg single oral dose, 0.5 hr): 127.3 | plasma concentration of compound A, Median ([2]; 90 mg single oral dose, 0.5 hr): 114.0 | plasma concentration of compound A, Mean ([2]; 90 mg single oral dose, 1 hr): 126.0 | plasma concentration of compound A, Median ([2]; 90 mg single oral dose, 1 hr): 113.0 | plasma concentration of compound A, Mean ([2]; 90 mg single oral dose, 2 hr): 152.8 | plasma concentration of compound A, Median ([2]; 90 mg single oral dose, 2 hr): 145.0 | plasma concentration of compound A, Mean ([2]; 90 mg single oral dose, 3 hr): 122.4 | plasma concentration of compound A, Median ([2]; 90 mg single oral dose, 3 hr): 127.0 | plasma concentration of compound A, Mean ([2]; 90 mg single oral dose, 6 hr): 52.81 | plasma concentration of compound A, Median ([2]; 90 mg single oral dose, 6 hr): 47.30 | plasma concentration of compound A, Mean ([2]; 90 mg single oral dose, 8 hr): 24.69 | plasma concentration of compound A, Median ([2]; 90 mg single oral dose, 8 hr): 20.30 | plasma concentration of compound A, Mean ([2]; 90 mg single oral dose, 12 hr): 5.612 | plasma concentration of compound A, Median ([2]; 90 mg single oral dose, 12 hr): 4.450 | plasma concentration of compound A, Mean [2, 7]: 0.000 | plasma concentration of compound A, Median [2, 7]: 0.000 | LPP Post (urethral resistance; 1.25 mg/kg p.o.): 63.2 ± 4.7 cmH2O | LPP Increase (urethral resistance; 1.25 mg/kg p.o.): 5.5 ± 3.0 cmH2O | LPP Pre (urethral resistance; 1.25 mg/kg p.o.): 57.7 ± 3.6 cmH2O | LPP Post (urethral resistance; 2.5 mg/kg p.o.): 70.2 ± 3.8 cmH2O | LPP Increase (urethral resistance; 2.5 mg/kg p.o.): 10.9 ± 2.2 cmH2O | LPP Pre (urethral resistance; 2.5 mg/kg p.o.): 59.2 ± 2.6 cmH2O | LPP Post (urethral resistance; 5 mg/kg p.o.): 75.9 ± 3.3 cmH2O | LPP Increase (urethral resistance; 5 mg/kg p.o.): 15.3 ± 3.7 cmH2O | LPP Pre (urethral resistance; 5 mg/kg p.o.): 60.6 ± 3.6 cmH2O | LPP Post (urethral resistance; 10 mg/kg p.o.): 78.4 ± 5.6 cmH2O | LPP Increase (urethral resistance; 10 mg/kg p.o.): 21.7 ± 4.4 cmH2O | LPP Pre (urethral resistance; 10 mg/kg p.o.): 56.7 ± 2.4 cmH2O | LPP Post (urethral resistance; 20 mg/kg p.o.): 77.7 ± 3.5 cmH2O | LPP Increase (urethral resistance; 20 mg/kg p.o.): 21.5 ± 3.4 cmH2O | LPP Pre (urethral resistance; 20 mg/kg p.o.): 56.3 ± 5.1 cmH2O | LPP10, the dose that increases LPP by 10 cm H2O (urethral resistance; oral administration, high speed saline infusion method): 1.6 mg/kg
